According to ChEMBL document CHEMBL1135956 (Bioorg Med Chem Lett, 2002):

What was measured:
Glucagon receptor [1] = target: T1, Glucagon receptor (Homo sapiens, UniProt P47871); assay: Binding affinity of second diastereomer (D2) against human glucagon receptor was determined
Glucagon receptor [2] = target: T1, Glucagon receptor; assay: Binding affinity of first enantiomer (E1) against human glucagon receptor was determined
Glucagon receptor [3] = target: T1, Glucagon receptor; assay: Binding affinity of first diastereomer (D1) against human glucagon receptor was determined
Glucagon receptor [4] = target: T1, Glucagon receptor; assay: Binding affinity of second enantiomer (E2) against human glucagon receptor was determined
[5] = Compound was evaluated for the functional activity by the inhibition of cAMP production

T1 sequence (P47871 whole entry): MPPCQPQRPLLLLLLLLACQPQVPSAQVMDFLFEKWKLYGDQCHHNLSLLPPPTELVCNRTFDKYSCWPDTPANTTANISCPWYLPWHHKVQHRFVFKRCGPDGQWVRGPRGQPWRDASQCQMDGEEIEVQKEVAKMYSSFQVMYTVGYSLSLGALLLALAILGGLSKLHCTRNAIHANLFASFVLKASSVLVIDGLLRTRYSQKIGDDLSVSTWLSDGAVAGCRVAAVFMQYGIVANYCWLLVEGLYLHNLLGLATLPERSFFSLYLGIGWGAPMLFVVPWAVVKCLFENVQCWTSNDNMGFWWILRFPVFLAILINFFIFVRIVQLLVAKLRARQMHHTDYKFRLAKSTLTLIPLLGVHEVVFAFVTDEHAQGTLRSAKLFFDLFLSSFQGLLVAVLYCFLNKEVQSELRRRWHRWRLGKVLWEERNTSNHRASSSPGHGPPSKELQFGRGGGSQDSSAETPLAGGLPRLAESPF

IC50 (Glucagon receptor [1]) [nM]	IC50 (Glucagon receptor [2]) [nM]	IC50 (Glucagon receptor [3]) [nM]	IC50 (Glucagon receptor [4]) [nM]	IC50 [5] [nM]	Compound
2000	5000	20	16	–	CCc1c(C(C)C)nc(C(C)C)c(C(C)O)c1-c1ccc(F)cc1O (centres undefined)
1000	–	28	–	–	CCCCc1c(C(C)C)nc(C(C)C)c(C(C)O)c1-c1ccc(F)cc1O (centres undefined)
1100	190	40	25	–	CCCc1c(C(C)C)nc(C(C)C)c(C(C)O)c1-c1ccccc1O (centres undefined)
1000	8000	18	10	6.5	CCCc1c(C(C)C)nc(C(C)C)c(C(C)O)c1-c1ccc(F)cc1O (centres undefined)
2200	8000	30	12	–	CCCCCc1c(C(C)C)nc(C(C)C)c(C(C)O)c1-c1ccc(F)cc1O (centres undefined)
